Values of other authors in US12708115B2, “Inground and above ground termite trailing and recruitment products and processes” (Florida Insect Control Group LLC, priority 2023, dated 2026).

Tested on: subterranean termites

## OCCOc1ccccc1 [2-phenoxyethanol]
field, untreated stations 0 of 20
  soil-treated detection stations hit by termites: 5 of 20
Soil treatment, Prescott thesis
  feeding on cellulose material surrounded by the treatment: feed more
